According to patent publication US20100239501A1, “GENE SENSITIVE TO BONE/JOINT DISEASE AND USE THEREOF” (RIKEN, priority 2007, published 2010):

How the values were obtained:
[1] = test system: OA patient-derived fibroblast-like synovial cells (HFLS-OA); assay: Inflammatory cytokine and MMP gene expression induction by LPA in human OA synovial cells; type: cell-based
Experimental: The inflammatory cytokine expression induction reaction of LPA, which is a ligand of EDG2, in OA patient-derived fibroblast-like synovial cells was analyzed. The method used is described below. OA patient-derived fibroblast-like synovial cells (HFLS-OA) were purchased from Cell application Co. The HFLS-OA was cultured using the attached Synoviocyte growth medium. The number of passages for the cells used was 4 or 5. The HFLS-OA was seeded to a 24-well plate at a ratio of 1×10^5 cells/well, and cultured using the attached Synoviocyte growth medium until they became confluent. Twelve hours before performing LPA stimulation, the medium was replaced with Ham's F-12 (Invitrogen) medium containing 0.1% fatty acid free bovine serum albumin (Sigma). In the time-related change analysis, 12 hours after the medium replacement, the cells were stimulated with 10 μM LPA; 0, 1, 2, 4, 8, 12 and 24 hours later, total RNA was extracted using ISOGEN (Nippon Gene), and the amounts expressed of the TNFA, IL1B, and IL6 genes, which are inflammatory cytokine genes, and of the MMP1, MMP3, and MMP13 genes, which are Matrix metalloproteinase (MMP) genes, were quantified by a method in accordance with Example 10 (n=4). In the dose dependency test, 12 hours after the medium replacement, the cells were stimulated with 0, 0.1, 0.3, 1, 3 and 10 μM LPA; 2 hours later, total RNA was extracted using ISOGEN (Nippon Gene), and the amounts expressed of the TNFA, IL1B, and IL6 genes, which are inflammatory cytokine genes, were quantified in the same manner as the above for the time-related change test (n=3). As a result of the time-related change test of inflammatory cytokine genes with LPA stimulation, the amounts of TNFA, IL1B and IL6 expressed rose transiently, with peaks reached 2, 4 and 1 hour later, respectively (FIGS. 8a, b and c). The amounts expressed of the MMP1, MMP3, and MMP13 genes, which are MMP genes, rose transiently, with peaks reached 8, 8 and 4 hours later, respectively (FIGS. 8d, e and f). It is known that in synovial cells, MMP genes have the expression thereof increased by inflammatory cytokines. In this experiment, the rise in the expression of the inflammatory cytokine genes preceded the rise in the expression of the MMP genes; therefore, the rise in the expression of MMP genes with LPA stimulation may be a secondary reaction via an inflammatory cytokine. As a result of the dose dependency test, it was shown that LPA raises the expression of inflammatory cytokine genes dose-dependently (FIGS. 8g, h and i). The amounts expressed of the TNFA and IL1B genes nearly reached a plateau at 1 μM, whereas the expression of the IL6 gene rose dose-dependently up to 10 μM. […] From this finding, it is thought that the inflammatory cytokine gene group induction reaction of LPA is very highly likely to be a reaction mediated mainly by the EDG2 gene.

[2] = test system: rabbit synovial cell line (HIG-82); assay: Inflammatory cytokine and MMP gene expression induction by LPA in rabbit synovial cell line; type: cell-based
Experimental: EDG2 is a GPCR having lysophosphatidic acid (LPA) as a ligand thereof. For LPA, four receptors, including EDG2, have been reported (EDG2, EDG4, EDG7 and GPR23). To analyze the tissue distributions of these four LPA receptors, an expression quantitation analysis by quantitative real-time PCR in various human tissues was performed. On 500 ng of total RNA of each of various human tissues (Human Total RNA Master Panel, Clontech), reverse transcription was performed using Multiscribe reverse transcriptase (Applied biosystems) and a random hexamer, whereby a cDNA was obtained. Quantitation of the LPA receptor genes was performed using QuantiTect STBR Green PCR (Qiagen) on the ABI PRISM 7700 sequence detection system (Applied biosystems) as directed in the documentation attached. The number of copies of each gene was calculated using a working curve. The amount of each gene was standardized by being divided by the number of copies of the G3PDH gene. A Toyobo product was used as the primer for the G3PDH gene. […] In these organs, the amount of the EDG2 gene expressed was about 20 to 100 times as high as other LPA receptor genes; this gene is a dominant LPA receptor (FIG. 2). The EDG2 gene was also found to be expressed at moderate levels in the adrenal, cerebellum, lung, placenta, prostate, testis, thyroid, trachea, and uterus (FIG. 2). In these tissues, EDG2 was not always a dominant LPA receptor.
The inflammatory cytokine expression induction reaction of LPA in a rabbit synovial cell line was analyzed. The method used is described below. A rabbit synovial cell line (HIG-82) was purchased from ATCC. The HIG-82 was cultured using Ham's F-12 medium (Invitrogen) containing 10% fetal bovine serum (FBS) and antibiotics (100 U/ml penicillin G and 100 μg/ml streptomycin). The HIG-82 was seeded to a 24-well plate at a ratio of 1×10^5 cells/well, and cultured until they became confluent. Twelve hours before performing LPA stimulation, the medium was replaced with Ham's F-12 medium containing 0.1% fatty acid free bovine serum albumin (Sigma). In the time-related change analysis, 12 hours after the medium replacement, the cells were stimulated with 10 μM LPA; 0, 2, 4, 8, 12 and 24 hours later, total RNA was extracted using ISOGEN (Nippon Gene), and the amounts expressed of the TNFA and IL1B genes, which are inflammatory cytokine genes, and of the MMP1, MMP3 and MMP13 genes, which are MMP genes, were quantified by a method in accordance with Example 10 (n=4). In the dose dependency test, 12 hours after the medium replacement, the cells were stimulated with 0, 0.1, 1 and 10 μM LPA; 2 hours later, total RNA was extracted using ISOGEN (Nippon Gene), and the amounts expressed of the TNFA and IL1B genes, which are inflammatory cytokine genes, were quantified by the same method as with the time-related change test (n=4). As a result of the time-related change test of inflammatory cytokine genes with LPA stimulation, the amounts expressed of the TNFA and IL1B genes rose transiently, with peaks reached 2 hours later (FIGS. 9a and b). The amounts expressed of the MMP1, MMP3 and MMP13 genes, which are MMP genes, rose transiently, with peaks reached 4, 4 and 8 hours later, respectively. As a result of the dose dependency test, it was shown that LPA raised the expression of inflammatory cytokine genes dose-dependently. The amount expressed of the IL1B gene nearly reached a plateau at 1 μM, whereas the amount expressed of the TNFA gene rose dose-dependently up to 10 μM. The results above are well similar to the results for HFLS-OA shown in Example 17, showing that in HIG-82 cells as well, the expression of inflammatory cytokine genes is induced with LPA stimulation, and the expression of MMPs is induced paracrinely.

## CCCCCCCC/C=C\CCCCCCCC(=O)OC[C@@H](O)COP(=O)(O)O [LPA, 1-Oleoyl-sn-Glycero-3-Phosphate]
[1]; 0, 0.1, 0.3, 1, 3 and 10 μM LPA, 2 hours, n=3
  rise of expression of inflammatory cytokine genes (TNFA, IL1B, IL6): dose-dependently
[1]; 10 μM LPA, transient rise, n=4
  time of peak of IL1B expression: 4 h
  time of peak of IL6 expression: 1 h
  time of peak of MMP1 gene expression: 8 h
  time of peak of MMP3 gene expression: 8 h
  time of peak of MMP13 gene expression: 4 h
  time of peak of TNFA expression: 2 h
[1]; dose dependency test, 2 hours
  LPA concentration at which IL1B gene expression nearly reached a plateau: 1 µM
  LPA concentration at which TNFA gene expression nearly reached a plateau: 1 µM
  LPA concentration up to which IL6 gene expression rose dose-dependently: up to 10 μM
[2]; 0, 0.1, 1 and 10 μM LPA, 2 hours, n=4
  rise of expression of inflammatory cytokine genes (TNFA, IL1B): dose-dependently
[2]; 10 μM LPA, transient rise, n=4
  time of peak of IL1B gene expression: 2 h
  time of peak of MMP1 gene expression: 4 h
  time of peak of MMP3 gene expression: 4 h
  time of peak of MMP13 gene expression: 8 h
  time of peak of TNFA gene expression: 2 h
[2]; dose dependency test, 2 hours
  LPA concentration at which IL1B gene expression nearly reached a plateau: 1 µM
  LPA concentration up to which TNFA gene expression rose dose-dependently: up to 10 μM
